Assay [1] deals with human large intestine cancer cell line HCT-116. Briefly: In vitro cell growth inhibitory activity against human large intestine cancer line by combined use with chemotherapeutic. Type of assay: cell-based. As to conditions: HCT-116, 3 days, single-agent treatment. The method, then: A human large intestine cancer cell line HCT-116 (obtained from DS Pharma Biomedical Co., Ltd.) was cultured in a McCoy's 5A medium (manufactured by Thermo Fisher Scientific, Inc.) containing 10% fetal bovine serum (FBS) (manufactured by Thermo Fisher Scientific, Inc.) and 1% penicillin/streptomycin/amphotericin B (manufactured by Thermo Fisher Scientific, Inc.) and inoculated at 0.5 to 2.0×10^3 cells/well to a 96-well plate. The cells were cultured overnight in a carbon dioxide incubator of 37° C. containing 5% carbon dioxide. The medium was replaced with a fresh medium on the next day, and then, a mixed solution of a DMSO solution of a test compound (IV-361, 5-FU or SN-38) with varying concentrations and a cell culture medium (final DMSO concentration: 0.2%) was added thereto. The concentration of the test compound was 10 nM, the concentration of 5-FU (manufactured by Wako Pure Chemical Industries, Ltd.) was 1000 nM, and the concentration of SN-38 (manufactured by Tocris Bioscience) was adjusted to 1 nM to carry out the test. For a control group, a mixed solution of DMSO and a cell culture medium (final DMSO concentration: 0.2%) was used instead of the DMSO solution of the test compound.
After the addition of the DMSO solution of the test compound, the cells were cultured for 3 days in a carbon dioxide incubator. Then, the absorbance (measurement wavelength: 565 nm) of the medium in each group was measured by using In Vitro Toxicology Assay Kit Sulforhodamine B based (manufactured by Sigma-Aldrich Co. LLC.).
The rate of inhibition of growth (%) was calculated according to the expression given below. Specifically, in the case where the difference between the average absorbance before culture (day 0) and the average absorbance after culture in the test compound-administered group is the same as the difference between the average absorbance before culture (day 0) and the average absorbance after culture in the control group, the rate of inhibition of cell growth is 0%. Rate of inhibition of growth=(1−((Average absorbance of the test compound-administered group after culture)−(Average absorbance of the test compound-administered group on day 0))/((Average absorbance of the control group after culture)−(Average absorbance of the control group on day 0)))×100

Assay [2] deals with human large intestine cancer cell line (HCT-116) tumor. Kind of assay: In vivo tumor growth inhibition test for human large intestine cancer cell line by combined use with chemotherapeutic. As to conditions: alone.
Description: The prepared cell suspension was subcutaneously injected at 0.1 mL/mouse to the right abdomens of female BALB nude mice (supplied by Charles River Laboratories Japan, Inc.).
Individuals whose tumor volume was within the range of 50 to 200 mm^3 were selected and grouped such that the tumor volume was almost equivalent. After the grouping, a test compound or only a solvent was administered in a repeated manner to the mice of each group as follows:
Single-agent administration group:
Control group: solvent (administered once a day)
5-FU, oxaliplatin, and irinotecan were intraperitoneally administered (5 mL/kg).
After a lapse of a predetermined period, the body weights of the mice of each group and the long diameter and short diameter of tumor were measured, and the tumor volume of the test compound-administered group with respect to the tumor volume of the control group was calculated as the rate of suppression of tumor volume (%).
Assay [3] deals with human large intestine cancer cell line (HCT-116). Kind of assay: Human large intestine cancer (HCT-116) cell growth inhibition test. It is filed as cell-based. As to conditions: HCT-116 (row of Table 50), read-out: GI50 value (concentration necessary for inhibiting 50% of cell growth). A digest of the protocol:
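HCT-116 cells were seeded at 0.5 to 2.0×10^3 cells/well in McCoy's 5A with 10% FBS and dosed with compound at 0.1% final DMSO after overnight culture. Growth was measured by sulforhodamine B absorbance after 3 days. GI50 was calculated from the inhibition rate at each concentration.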

For assay [4], the system named is breast cancer cell line BT-549. Kind of assay: Various human cancer cell growth inhibition test: BT-549. It is filed as cell-based. As to conditions: ATPlite, read-out: GI50 value (concentration necessary for inhibiting 50% of cell growth). An excerpt: (§1) A breast cancer cell line BT-549 (obtained from American Type Culture Collection (ATCC)), a uterus cancer cell line C-33A (obtained from ATCC), an ovary cancer cell line PA-1 (obtained from ATCC), a large-cell lung cancer cell line NCI-H460 (obtained from ATCC), a small-cell lung cancer cell line NCI-H82 (obtained from ATCC), a kidney cancer cell line ACHN (obtained from ATCC), a pancreatic cancer cell line BxPC-3 (obtained from ATCC), a malignant melanoma cell line A375 (obtained from ATCC), a throat cancer cell line FaDu (obtained from ATCC), a medulloblastoma cell line Daoy (obtained from ATCC), a cutaneous epithelioid sarcoma cell line VA-ES-BJ (obtained from ATCC), a rhabdomyosarcoma cell line A-204 (obtained from ATCC), a prostate cancer cell line DU145 (obtained from ATCC), a bladder cancer cell line T24 (obtained from ATCC), a lymphoma cell line SR (obtained from ATCC), a neuroblastoma cell line SH-SY5Y (obtained from DS Pharma Biomedical Co., Ltd.), a liver cancer cell line HepG2 (obtained from DS Pharma Biomedical Co., Ltd.), a stomach cancer cell line HGC-27 (obtained from DS Pharma Biomedical Co., Ltd.), and a multiple myeloma cell line NCI-H929 (obtained from DS Pharma Biomedical Co., Ltd.) were used as human cancer cell lines.
(§2) Each cell line was cultured in a cell culture medium recommended by ATCC or DS Pharma Biomedical Co., Ltd. and inoculated at 0.3 to 5.0×10^3 cells/well to a 96-well plate. The cells were cultured overnight in a carbon dioxide incubator of 37° C. containing 5% carbon dioxide. The medium was replaced with a fresh medium on the next day, then replaced with a mixed solution of a DMSO solution of a test compound with varying concentrations and a culture medium (final DMSO concentration: 0.1%), and left standing in a carbon dioxide incubator (day 0). IV-361, IV-379, IV-3, IV-215, IV-299, IV-669, IV-1049, and palbociclib (for comparison) were used as test compounds. For a control group, DMSO was added instead of the DMSO solution of the test compound to a cell culture medium (final DMSO concentration: 0.1%).
(§3) After culture for a predetermined period, the ATP activity of BT-549, C-33A, PA-1, NCI-H460, NCI-H82, ACHN, BxPC-3, A375, FaDu, Daoy, VA-ES-BJ, A-204, DU145, T24, and SR was measured by using ATPlite (manufactured by PerkinElmer, Inc.). The ATP activity of SH-SY5Y, HepG2, HGC-27, and NCI-H929 was measured by using CellTiter-Glo (manufactured by Promega Corp.).
(§4) The rate of inhibition of cell growth (%) was calculated according to the expression given below. Specifically, in the case where the difference between the ATP activity before culture (day 0) and the ATP activity after culture in the test compound-administered group is the same as the difference between the ATP activity before culture (day 0) and the ATP activity after culture in the control group, the rate of inhibition of cell growth is 0%. Rate of inhibition of cell growth=(1−((ATP activity of the test compound-administered group after culture)−(ATP activity of the test compound-administered group on day 0))/((ATP activity of the control group after culture)−(ATP activity of the control group on day 0)))×100
(§5) The concentration of the test compound necessary for inhibiting 50% of cell growth (GI50 value) was calculated by using EXSUS (version 8.1.0, manufactured by CAC Exicare Corp.).

In assay [5] the test system is uterus cancer cell line C-33A. Kind of assay: Various human cancer cell growth inhibition test: C-33A. It is filed as cell-based. As to conditions: ATPlite, read-out: GI50 value (concentration necessary for inhibiting 50% of cell growth).
Description: as §1, §2, §3, §4, §5
Background: ATP-based viability assays read luminescence as a measure of living cells.

Assay [6] relates to ovary cancer cell line PA-1. Kind of assay: Various human cancer cell growth inhibition test: PA-1. Type of assay: cell-based. As to conditions: ATPlite, read-out: GI50 value (concentration necessary for inhibiting 50% of cell growth).
Description: as §1, §2, §3, §4, §5

Assay [7] relates to large-cell lung cancer cell line NCI-H460. Briefly: Various human cancer cell growth inhibition test: NCI-H460. Type of assay: cell-based. Particulars: ATPlite, read-out: GI50 value (concentration necessary for inhibiting 50% of cell growth).
Description: as §1, §2, §3, §4, §5

For assay [8], the system named is small-cell lung cancer cell line NCI-H82. Kind of assay: Various human cancer cell growth inhibition test: NCI-H82. It is filed as cell-based. Particulars: ATPlite, read-out: GI50 value (concentration necessary for inhibiting 50% of cell growth).
Description: as §1, §2, §3, §4, §5

In assay [9] the test system is kidney cancer cell line ACHN. Kind of assay: Various human cancer cell growth inhibition test: ACHN. It is filed as cell-based. Particulars: ATPlite, read-out: GI50 value (concentration necessary for inhibiting 50% of cell growth).
Description: as §1, §2, §3, §4, §5

Assay [10] relates to pancreatic cancer cell line BxPC-3. Kind of assay: Various human cancer cell growth inhibition test: BxPC-3. It is filed as cell-based. Particulars: ATPlite, read-out: GI50 value (concentration necessary for inhibiting 50% of cell growth).
Description: as §1, §2, §3, §4, §5

The test system of assay [11] is malignant melanoma cell line A375. Briefly: Various human cancer cell growth inhibition test: A375. Type of assay: cell-based. Particulars: A-375, ATPlite, read-out: GI50 value (concentration necessary for inhibiting 50% of cell growth).
Description: as §1, §2, §3, §4, §5

In assay [12] the test system is throat cancer cell line FaDu. Briefly: Various human cancer cell growth inhibition test: FaDu. It is filed as cell-based. As to conditions: ATPlite, read-out: GI50 value (concentration necessary for inhibiting 50% of cell growth).
Description: as §1, §2, §3, §4, §5

The test system of assay [13] is rhabdomyosarcoma cell line A-204. Briefly: Various human cancer cell growth inhibition test: A-204. Particulars: A204, ATPlite, read-out: GI50 value (concentration necessary for inhibiting 50% of cell growth). Type of assay: cell-based.
Description: as §1, §2, §3, §4, §5

A further assay deals with lymphoma cell line SR. Briefly: Various human cancer cell growth inhibition test: SR. Type of assay: cell-based. Particulars: ATPlite, read-out: GI50 value (concentration necessary for inhibiting 50% of cell growth).
Description: as §1, §2, §3, §4, §5

Structures are written as SMILES.

As for `O=c1[nH]cc(F)c(=O)[nH]1` [5-FU, 5-Fluorouracil, reference compound], the inhibition (as a rule, the percentage by which the read-out fell short of the control) at 1 µM in [1] (Homo sapiens, 72 h, 5-FU 1000 nM, read-out: Rate of inhibition of growth (%)) came out at 25%. In addition, the “Rate of suppression of tumor volume” value in assay [2] (Table 52, 5-FU 15 mg/kg/day intraperitoneal) amounted to 21%.

As for `O=C1[O][Pt]2([NH][C@@H]3CCCC[C@H]3[NH]2)[O]C1=O` [Oxaliplatin, oxaliplatin, reference compound], the “Rate of suppression of tumor volume” value in assay [2] (Table 53, oxaliplatin 3 mg/kg/day intraperitoneal) is 44%.

Take `CC(=O)c1c(C)c2cnc(Nc3ccc(N4CCNCC4)cn3)nc2n(C2CCCC2)c1=O` [Palbociclib, palbociclib, reference compound]: the GI50 in assay [3] was 300 to 1000 nM; in [4], at least 1000 nM; in [5], at least 1000 nM; in [6] it was under 300 nM; in assay [7] it was under 300 nM; in [8], at least 1000 nM. The GI50 in assay [9] is under 300 nM; in [10], under 300 nM; in assay [11], under 300 nM; in assay [12], at least 1000 nM; in [13], at least 1000 nM; in the assay with lymphoma cell line SR it was under 300 nM.

As for `CCc1c2c(nc3ccc(O)cc13)-c1cc3c(c(=O)n1C2)COC(=O)[C@]3(O)CC` [SN-38, reference compound], the “Rate of inhibition of growth (%)” value in assay [1] (SN-38 1 nM) is given as 12%.
